Reference: patent publication US11591331B2, “PARP1 inhibitors and uses thereof” (Xinthera, Inc., priority 2021, dated 2023)

Assays:
[1] = test system: MDA-MB-436 (mutated BRCA1) cell lines; test: Cell growth inhibition assay (CellTiter-Glo cell viability, 7 days); format: cell-based; details: Homo sapiens, 168 h, MDA-MB-436 cells
DLD-1 BRCA2(−/−) = test: as above; format: cell-based; details: Homo sapiens, 168 h, DLD-1 BRCA2(-/-) cells

| SMILES | EC50 [1] [nM] | EC50 (DLD-1 BRCA2(−/−)) [nM] |
| --- | --- | --- |
| CCc1cc2ncc(CN3CCN(c4ccc(C(=O)N[C@H]5C[C@@H](C#N)C5)nc4)CC3)cc2[nH]c1=O [Example 58] | 0.9 | 3.5 |
| CCc1cc2ncc(CN3CCN(c4ccc(C(=O)N[C@H](C)CO)nc4)CC3)cc2[nH]c1=O [Example 59] | 7.8 | 16 |
| CCc1cc2ncc(CN3CCN(c4ccc(C(=O)NC[C@@H](C)OC)nc4)CC3)cc2[nH]c1=O [Example 60] | 5 | 14 |
| CCc1cc2ncc(CN3CCN(c4ccc(C(=O)NC)nn4)CC3)cc2[nH]c1=O [Example 61] | 4.8 | 6.3 |
| Cc1cc2ncc(CN3CCN(c4ccc(C(=O)NC5CC5)nc4)CC3)cc2[nH]c1=O [Example 63] | 3.2 | 9.3 |
| CNC(=O)c1ccc(C2=CCN(Cc3cnc4cc(C5CC5)c(=O)[nH]c4c3)CC2)cn1 [Example 64] | 0.64 | 0.92 |
| CCc1cc2ncc(CN3CCN(c4ccc(C(=O)NC)c(=O)n4C)CC3)cc2[nH]c1=O [Example 65] | 3.1 | 13 |
| CNC(=O)c1ccc(N2CCN(Cc3cnc4cc(C)c(=O)[nH]c4c3)C[C@H]2C)c(C#N)n1 [Example 66] | 1.7 | 4.1 |
| [2H]C([2H])([2H])NC(=O)c1ccc(N2CCN(Cc3cnc4cc(C5CC5)c(=O)[nH]c4c3)CC2)cn1 [Example 67] | 1.1 | 1.8 |
| CCc1cc2ncc(CN3CCN(c4ccc(-c5cnc[nH]5)c(F)c4)CC3)cc2[nH]c1=O [Example 70] | 2.6 | 5.5 |
| CNC(=O)c1ncc(N2CCN(Cc3ccc4c5c(c(=O)[nH]c4c3)CCO5)CC2)cc1F [Example 71] | 5.9 | 13 |
| [2H]C([2H])([2H])NC(=O)c1ccc(N2CCN(Cc3ccc4c5c(c(=O)[nH]c4c3)CCO5)CC2)cn1 [Example 73] | 2.2 | 4.2 |
| CNC(=O)c1ccc(N2CCN(Cc3cnc4cc(C5CC5)c(=O)[nH]c4c3)C[C@H]2C)cn1 [Example 74] | 3.9 | 7.8 |
| CCc1cc2ncc(CN3CCN(c4ccc(NC(=O)C5CC5)nc4)CC3)cc2[nH]c1=O [Example 75] | 1.5 | 2.6 |
| CNC(=O)c1ccc2c(n1)OC[C@@H]1CN(Cc3cnc4cc(C)c(=O)[nH]c4c3)CCN21 [Example 77] | 5.8 | 8.5 |
| CNC(=O)c1ccc2c(n1)OC[C@@H]1CN(Cc3cnc4cc(C5CC5)c(=O)[nH]c4c3)CCN21 [Example 78] | 1.8 | 2.8 |

| SMILES | EC50 [1] [nM] | EC50 (DLD-1 BRCA2(−/−)) [nM] |
| --- | --- | --- |
| CCc1cc2ncc(CN3CCN(c4ccc(C(=O)NC5COC5)nc4)[C@H](C)C3)cc2[nH]c1=O [Example 79] | 3.7 | 9.6 |
| Cc1cc2ncc(CN3CCN(c4ccc(C(=O)NC5COC5)c(F)c4)CC3)cc2[nH]c1=O [Example 80] | 9.8 | 37 |
| O=C(NC1COC1)c1ccc(N2CCN(Cc3cnc4cc(C5CC5)c(=O)[nH]c4c3)CC2)cn1 [Example 81] | 4.5 | 5.9 |
| CCc1cc2ncc(CN3CCN(c4ccccn4)CC3)cc2[nH]c1=O [Example 82, 3-ethyl-7-{[4-(pyridin-2-yl)piperazin-1-yl]methyl}-1H-1,5-naphthyridin-2-one] | 7.8 | 10 |
| C#Cc1ccc(N2CCN(Cc3cnc4cc(CC)c(=O)[nH]c4c3)CC2)nc1 [Example 83] | 1.4 | 1.5 |
| CNC(=O)c1ccc(N2CCN(Cc3cnc4c5c(c(=O)[nH]c4c3)CCC5)CC2)cn1 [Example 84] | 2 | 2.2 |
| CCc1cc2nnc(CN3CCN(c4ccc(C(=O)NC)nc4)CC3)cc2[nH]c1=O [Example 86] | 6.1 | 6 |
| CCc1nc2cnc(CN3CCN(c4ccc(C(=O)NC)nc4)CC3)cc2[nH]c1=O [Example 87] | 5.3 | 6.5 |
| CCc1cc2ccc(CN3CCN(c4ccc(C(=O)NC)c(=O)n4C)CC3)cc2[nH]c1=O [Example 89] | 2.5 | 3.5 |
| CCc1nc2ncc(CN3CCN(c4ccc(C(=O)NC)nc4)CC3)cc2[nH]c1=O [Example 91] | 13 | 13 |
| CCc1cc2ncc(CN3CCN(c4ccc(-n5cccn5)nc4)CC3)cc2[nH]c1=O [Example 92] | 10 | 11 |
| [2H]C([2H])([2H])NC(=O)c1ccc(N2CCN(Cc3cnc4cc(CC)c(=O)[nH]c4c3)C[C@H]2C)c(C#N)n1 [Example 93] | 0.84 | 1.7 |
| CNC(=O)c1ccc2c(c1F)OC[C@@H]1CN(Cc3cnc4cc(C)c(=O)[nH]c4c3)CCN21 [Example 94] | 41 | 39 |
| CNC(=O)c1ccc(N2CCN(Cc3cnc4c(C)c(C)c(=O)[nH]c4c3)CC2)cn1 [Example 95] | 2.9 | 3.9 |
| CNC(=O)c1ccc(N2CCN(Cc3cnc4cc(C5CC5)c(=O)[nH]c4c3)CC2)c(C#N)n1 [Example 97] | 0.71 | 1.5 |
